#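 Here, GI50 denotes the concentration required for 50% inhibition of growth. At the TGI there is no net growth.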
# Assays:
# Assay in all cases: growth of human tumour cells (NCI), 384-well format
# NCI-H522 lung = test system: NCI-H522 lung
# MCF7 breast = test system: MCF7 breast
# HOP-62 NSCLC = test system: HOP-62 NSCLC
# MDA-MB-231 breast = test system: MDA-MB-231 breast
# UACC-257 melanoma = test system: UACC-257 melanoma
# CAKI-1 renal = test system: CAKI-1 renal
# UO-31 renal = test system: UO-31 renal
# RPMI-8226 leukemia = test system: RPMI-8226 leukemia
# A549 NSCLC = test system: A549 NSCLC
# SK-MEL-5 melanoma = test system: SK-MEL-5 melanoma
# BT-549 breast = test system: BT-549 breast
# SK-MEL-28 melanoma = test system: SK-MEL-28 melanoma
# SR leukemia = test system: SR leukemia
# SF-268 CNS = test system: SF-268 CNS
# OVCAR-4 ovarian = test system: OVCAR-4 ovarian
# U251 glioblastoma = test system: U251 glioblastoma
# KM12 colon = test system: KM12 colon
# NCI-H23 lung = test system: NCI-H23 lung
# OVCAR-8 ovarian = test system: OVCAR-8 ovarian
# EKVX NSCLC = test system: EKVX NSCLC
# MALME-3M melanoma = test system: MALME-3M melanoma
# OVCAR-5 ovarian = test system: OVCAR-5 ovarian
# TK-10 renal = test system: TK-10 renal
# SNB-75 CNS = test system: SNB-75 CNS
# T-47D breast = test system: T-47D breast
# HL-60(TB) leukemia = test system: HL-60(TB) leukemia
# IGROV1 ovarian = test system: IGROV1 ovarian
# A498 renal = test system: A498 renal
# DU-145 prostate = test system: DU-145 prostate
# RXF 393 renal = test system: RXF 393 renal
# SK-OV-3 ovarian = test system: SK-OV-3 ovarian
# PC-3 prostate = test system: PC-3 prostate
# HCT-116 colon = test system: HCT-116 colon
# HT29 colon = test system: HT29 colon
# NCI-H322M lung = test system: NCI-H322M lung
# SN12C renal = test system: SN12C renal
# MDA-MB-468 breast = test system: MDA-MB-468 breast
# COLO 205 colon = test system: COLO 205 colon
# HCT-15 colon = test system: HCT-15 colon
# MOLT-4 leukemia = test system: MOLT-4 leukemia
# SW-620 colon = test system: SW-620 colon
# MDA-MB-435 melanoma = test system: MDA-MB-435 melanoma
# NCI-H226 lung = test system: NCI-H226 lung
# SF-539 CNS = test system: SF-539 CNS
# M14 melanoma = test system: M14 melanoma
# 786-0 renal = test system: 786-0 renal
# ACHN renal = test system: ACHN renal
# NCI/ADR-RES ovarian = test system: NCI/ADR-RES ovarian
# SF-295 CNS = test system: SF-295 CNS
# NCI-H460 NSCLC = test system: NCI-H460 NSCLC
# SNB-19 CNS = test system: SNB-19 CNS
# HS 578T breast = test system: HS 578T breast
# UACC-62 melanoma = test system: UACC-62 melanoma
# LOX IMVI melanoma = test system: LOX IMVI melanoma
# HCC-2998 colon = test system: HCC-2998 colon
# OVCAR-3 ovarian = test system: OVCAR-3 ovarian
# HOP-92 NSCLC = test system: HOP-92 NSCLC
smiles,measurement,setting,value
C=C1C[C@@H]2[C@H](CC[C@]3(C)C(=O)CC[C@@H]23)[C@@]2(C)C=CC(=O)C=C12,GI50,NCI-H522 lung,12.2 µM
same,TGI,NCI-H522 lung,24.8 µM
same,GI50,MCF7 breast,18.6 µM
same,TGI,MCF7 breast,82.4 µM
same,GI50,HOP-62 NSCLC,23.1 µM
same,TGI,HOP-62 NSCLC,56.2 µM
same,GI50,MDA-MB-231 breast,28.8 µM
same,TGI,MDA-MB-231 breast,85.1 µM
same,GI50,UACC-257 melanoma,17.3 µM
same,TGI,UACC-257 melanoma,53.1 µM
same,GI50,CAKI-1 renal,27 µM
same,TGI,CAKI-1 renal,70.7 µM
same,GI50,UO-31 renal,21.1 µM
same,TGI,UO-31 renal,39.5 µM
same,GI50,RPMI-8226 leukemia,17.8 µM
same,TGI,RPMI-8226 leukemia,32.2 µM
same,GI50,A549 NSCLC,30.1 µM
same,TGI,A549 NSCLC,> 100 µM
same,GI50,SK-MEL-5 melanoma,12.9 µM
same,TGI,SK-MEL-5 melanoma,29.1 µM
same,GI50,BT-549 breast,14.9 µM
same,TGI,BT-549 breast,31.1 µM
same,GI50,SK-MEL-28 melanoma,> 100 µM
same,TGI,SK-MEL-28 melanoma,> 100 µM
same,GI50,SR leukemia,18 µM
same,TGI,SR leukemia,32.1 µM
same,GI50,SF-268 CNS,27.4 µM
same,TGI,SF-268 CNS,74.9 µM
same,GI50,OVCAR-4 ovarian,20.9 µM
same,TGI,OVCAR-4 ovarian,40.2 µM
same,GI50,U251 glioblastoma,21.4 µM
same,TGI,U251 glioblastoma,44.4 µM
same,GI50,KM12 colon,28 µM
same,TGI,KM12 colon,94.9 µM
same,GI50,NCI-H23 lung,17.9 µM
same,TGI,NCI-H23 lung,36.2 µM
same,GI50,OVCAR-8 ovarian,20.3 µM
same,TGI,OVCAR-8 ovarian,47.2 µM
same,GI50,EKVX NSCLC,28.4 µM
same,TGI,EKVX NSCLC,75.7 µM
same,GI50,MALME-3M melanoma,12.2 µM
same,TGI,MALME-3M melanoma,25.9 µM
same,GI50,OVCAR-5 ovarian,> 100 µM
same,TGI,OVCAR-5 ovarian,> 100 µM
same,GI50,TK-10 renal,> 100 µM
same,TGI,TK-10 renal,> 100 µM
same,GI50,SNB-75 CNS,25.9 µM
same,TGI,SNB-75 CNS,74 µM
same,GI50,T-47D breast,27.6 µM
same,TGI,T-47D breast,98.6 µM
same,GI50,HL-60(TB) leukemia,12.8 µM
same,TGI,HL-60(TB) leukemia,25.6 µM
same,GI50,IGROV1 ovarian,32.6 µM
same,TGI,IGROV1 ovarian,> 100 µM
same,GI50,A498 renal,23.3 µM
same,TGI,A498 renal,47.8 µM
same,GI50,DU-145 prostate,35.2 µM
same,TGI,DU-145 prostate,> 100 µM
same,GI50,RXF 393 renal,5.67 µM
same,TGI,RXF 393 renal,17.4 µM
same,GI50,SK-OV-3 ovarian,82.2 µM
same,TGI,SK-OV-3 ovarian,> 100 µM
same,GI50,PC-3 prostate,30.3 µM
same,TGI,PC-3 prostate,> 100 µM
same,GI50,HCT-116 colon,27.5 µM
same,TGI,HCT-116 colon,> 100 µM
same,GI50,HT29 colon,23 µM
same,TGI,HT29 colon,99.1 µM
same,GI50,NCI-H322M lung,25.1 µM
same,TGI,NCI-H322M lung,74.6 µM
same,GI50,SN12C renal,32.4 µM
same,TGI,SN12C renal,98.2 µM
same,GI50,MDA-MB-468 breast,6.15 µM
same,TGI,MDA-MB-468 breast,25.8 µM
same,GI50,COLO 205 colon,20.7 µM
same,TGI,COLO 205 colon,37.4 µM
same,GI50,HCT-15 colon,19 µM
same,TGI,HCT-15 colon,> 100 µM
same,GI50,MOLT-4 leukemia,13.7 µM
same,TGI,MOLT-4 leukemia,27 µM
same,GI50,SW-620 colon,33.9 µM
same,TGI,SW-620 colon,> 100 µM
same,GI50,MDA-MB-435 melanoma,82.9 µM
same,TGI,MDA-MB-435 melanoma,> 100 µM
same,GI50,NCI-H226 lung,20.5 µM
same,TGI,NCI-H226 lung,39.2 µM
same,GI50,SF-539 CNS,19.6 µM
same,TGI,SF-539 CNS,38.9 µM
same,GI50,M14 melanoma,29.3 µM
same,TGI,M14 melanoma,> 100 µM
same,GI50,786-0 renal,19.8 µM
same,TGI,786-0 renal,45.8 µM
same,GI50,ACHN renal,22.3 µM
same,TGI,ACHN renal,42.6 µM
same,GI50,NCI/ADR-RES ovarian,17.9 µM
same,TGI,NCI/ADR-RES ovarian,35.3 µM
same,GI50,SF-295 CNS,57.1 µM
same,TGI,SF-295 CNS,> 100 µM
same,GI50,NCI-H460 NSCLC,21.1 µM
same,TGI,NCI-H460 NSCLC,40.6 µM
same,GI50,SNB-19 CNS,46.5 µM
same,TGI,SNB-19 CNS,> 100 µM
same,GI50,HS 578T breast,12.3 µM
same,TGI,HS 578T breast,27.2 µM
same,GI50,UACC-62 melanoma,21.9 µM
same,TGI,UACC-62 melanoma,> 100 µM
same,GI50,LOX IMVI melanoma,12.5 µM
same,TGI,LOX IMVI melanoma,27.1 µM
same,GI50,HCC-2998 colon,15.8 µM
same,TGI,HCC-2998 colon,30 µM
same,GI50,OVCAR-3 ovarian,14.8 µM
same,TGI,OVCAR-3 ovarian,35.9 µM
same,GI50,HOP-92 NSCLC,> 100 µM
same,TGI,HOP-92 NSCLC,> 100 µM

# Source: PubChem BioAssay (NCI)
